Measurements from ChEMBL document CHEMBL1159341, “Bistratamides E-J, modified cyclic hexapeptides from the Philippines ascidian Lissoclinum bistratum” (J Nat Prod, 2003).
≈ marks a conversion by molar mass, not a printed value.

Test system: HCT-116
Experiment: Cytotoxicity against human HCT116 cells
Assay type: functional, cell-based

`CC(C)[C@@H]1NC(=O)c2csc(n2)[C@H](C(C)C)NC(=O)c2csc(n2)[C@H](C(C)C)NC(=O)[C@H]2N=C1O[C@@H]2C` [BISTRATAMIDE E] showed an IC50 of 7.9 µg/mL (≈ 14.4 µM).

In the case of `CC(C)[C@@H]1NC(=O)[C@H]2N=C(O[C@@H]2C)[C@H](C(C)C)NC(=O)c2csc(n2)[C@H](C(C)C)NC(=O)[C@@H]2COC1=N2` [BISTRATAMIDE F], the IC50 is reported as 28 µg/mL (≈ 52.6 µM).

Work on `Cc1oc2nc1C(=O)N[C@@H](C(C)C)c1nc(co1)C(=O)N[C@@H](C(C)C)c1nc(cs1)C(=O)N[C@H]2C(C)C` [BISTRATAMIDE G] yielded an IC50 of 5 µg/mL (≈ 9.46 µM).

`Cc1oc2nc1C(=O)N[C@@H](C(C)C)c1nc(cs1)C(=O)N[C@@H](C(C)C)c1nc(cs1)C(=O)N[C@H]2C(C)C` [BISTRATAMIDE H] showed an IC50 of 1.7 µg/mL (≈ 3.12 µM).

For `CC(C)[C@@H]1NC(=O)c2csc(n2)[C@H](C(C)C)NC(=O)c2coc(n2)[C@H](C(C)C)NC(=O)[C@H]([C@@H](C)O)NC1=O` [BISTRATAMIDE I], the IC50 was 9 µg/mL (≈ 16.4 µM).

Work on `CC(C)[C@@H]1NC(=O)c2csc(n2)[C@H](C(C)C)NC(=O)c2csc(n2)[C@H](C(C)C)NC(=O)[C@H]([C@@H](C)O)NC1=O` [BISTRATAMIDE J] yielded an IC50 of 1 µg/mL (≈ 1.77 µM).
